The values that follow come from patent US7605272B2, “IGF-1R inhibitor” (Kyowa Hakko Kirin Co., Ltd., priority 2005, dated 2009).

Structures can show the parent of a compound that is named as a salt.

Experiment [1] deals with KMS-11. Description: Cytostatic activity on human multiple myeloma cell line KMS-11 (WST-1). In kind it is cell-based. The settings on record: 72 hours; for inhibition at 10 µM / inhibition at 1 µM: Homo sapiens, KMS-11, 72 h; for inhibition at 10 µM: read-out: cytostatic rate (%) KMS-11 (10 μmol/L); for inhibition at 1 µM: read-out: cytostatic rate (%) KMS-11 (1 μmol/L). A digest of the protocol:
(§1)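 Cytostatic rate is 100 minus % growth relative to DMSO-only wells (100%) and blank wells (0%), read by WST-1 absorbance at 450/690 nm after 2 h. Compound at 1 or 10 μmol/L final was applied for 72 h at 37 °C to cells seeded 24 h earlier.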
(Formazan colour is commonly taken as a measure of viable cells.)

For experiment [2], the system named is Colo205. Briefly: Cytostatic activity on human colon cancer cell line Colo205 (WST-1). In kind it is cell-based. Conditions: 10 μmol/L; for inhibition at 10 µM: Homo sapiens, COLO 205, 72 h, read-out: cytostatic rate (%) Colo205 (10 μmol/L); for cytostatic rate (%) Colo205 (10 μmol/L): 72 hours. The method, then: (§2) The cytostatic rates of the test compound on the human pancreatic cancer cell line AsPC-1 and the human colon cancer cell line Colo205 were determined in the following manner.
(§3) For culturing AsPC-1, RPMI 1640 medium containing 20% fetal bovine serum, 1 mmol/L sodium pyruvate, 10 mmol/L HEPES, 4.5 g/L glucose and penicillin/streptomycin (1:1). The Colo205 cell was cultured using RPMI 1640 medium containing 10% fetal bovine serum, 1 mmol/L sodium pyruvate, 10 mmol/L HEPES, 4.5 g/L glucose and penicillin/streptomycin (1:1) was used. Each 80 μL of the AsPC-1 cell having a concentration of 5×10^4 cells/mL (or the Colo205 having a concentration of 5×10^4 cells/mL) was inoculated to wells of a TC MICROWELL 96F plate (Nalge Nunc International, Catalog No. 167008) and was cultured in a 5% carbon dioxide gas incubator at 37° C. for 24 hours. Each 20 μL of a solution of the test compound in DMSO which was prepared to make the final concentration to 1 μmol/L or 10 μmol/L, was added to each well. Each 20 μL of DMSO was added to the control well and the blank well to a final concentration of 0.1%. After adding the test compound, the cell was incubated in a 5% carbon dioxide gas incubator at 37° C. for 72 hours except for the blank well. After adding 20 μL of WST-1 reagent which was diluted to 50% by RPMI medium to each well, the cells were further incubated at 37° C. for 2 hours. Then, the absorbances at 450 nm (reference wavelength: 690 nm) were determined with a microplate spectrophotometer SPECTRA max 340PC. The cytostatic rate (%) was then determined in the similar manner to the above multiple myeloma cell lines.

Experiment [3] relates to AsPC-1. Briefly: Cytostatic activity on human pancreatic cancer cell line AsPC-1 (WST-1). The settings on record: 10 μmol/L; for inhibition at 10 µM: Homo sapiens, ASPC1, 72 h, read-out: cytostatic rate (%) AsPC-1 (10 μmol/L); for cytostatic rate (%) AsPC-1 (10 μmol/L): 72 hours. In kind it is cell-based. Here is the method:
as §2, §3

The test system of experiment [4] is NCI-H929. Description: Cytostatic activity on human multiple myeloma cell line NCI-H929 (WST-1). In kind it is cell-based. Conditions: 72 hours; for inhibition at 10 µM / inhibition at 1 µM: Homo sapiens, NCI-H929, 72 h; for inhibition at 10 µM: read-out: cytostatic rate (%) H929 (10 μmol/L); for inhibition at 1 µM: read-out: cytostatic rate (%) H929 (1 μmol/L). A digest of the protocol:
as §1

The target of experiment [5] is T1, IGF-1R (Homo sapiens, UniProt P08069).
T1 construct: purchased Upstate Co. 14-465
T1 sequence (P08069 959-1367 limits assumed): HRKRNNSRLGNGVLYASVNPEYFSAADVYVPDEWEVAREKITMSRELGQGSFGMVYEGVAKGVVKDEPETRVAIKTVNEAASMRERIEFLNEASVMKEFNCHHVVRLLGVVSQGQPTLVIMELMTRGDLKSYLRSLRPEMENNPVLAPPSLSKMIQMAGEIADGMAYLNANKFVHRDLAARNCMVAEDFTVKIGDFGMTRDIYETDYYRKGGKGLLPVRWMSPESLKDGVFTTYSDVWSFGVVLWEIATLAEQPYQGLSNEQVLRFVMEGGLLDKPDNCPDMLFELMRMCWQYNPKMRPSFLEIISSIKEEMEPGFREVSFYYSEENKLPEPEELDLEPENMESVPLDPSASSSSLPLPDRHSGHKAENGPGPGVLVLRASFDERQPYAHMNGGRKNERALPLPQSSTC
Briefly: IGF-1R inhibitory activity (kinase reaction, time-resolved fluoroimmunoassay). It is filed as biochemical. Conditions: test compound 10 μmol/L. A digest of the protocol:
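Compounds were tested at a single 10 μmol/L concentration. Each was incubated with recombinant IGF-1R (200 μg/L), 10 mmol/L ATP, MgCl2/MnCl2 and Na3VO4 (pH 7.5) on immobilized poly(Glu-Tyr) peptide for 30 min at 24° C. Eu-anti-phosphotyrosine time-resolved fluorescence (340/615 nm) gave relative activity against no-compound and no-enzyme wells, reported as % inhibition.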

Setting [6] is: IGF-1R active recombinant enzyme.

On to `Cc1ccsc1C(=O)Nc1cc(C(=O)N2CCOCC2)ccc1/C=C/c1n[nH]c2ccccc12` [Compound 100, (E)-N-{2-[2-(1H-indazol-3-yl)vinyl]-5-(morpholin-4-ylcarbonyl)phenyl}-3-methylthiophene-2-carboxamide], for which the inhibition at 10 µM in experiment [1] (10 μmol/L) worked out at 115%; in experiment [2], 121%; in experiment [3], 108%; in experiment [4] (10 μmol/L), 122%; in experiment [5], 98.6%.
Regarding `Cc1ccsc1C(=O)Nc1cc(CO)ccc1/C=C/c1n[nH]c2ccccc12` [Compound 108, (E)-N-{5-hydroxymethyl-2-[2-(1H-indazol-3-yl)vinyl]phenyl}-3-methylthiophene-2-carboxamide], the inhibition at 10 µM in experiment [1] (10 μmol/L) was determined as 110%; in experiment [2], 121%; in experiment [3], 87.9%; in experiment [4] (10 μmol/L) it was 123%; in experiment [5], 95%.
Take `COc1cccc(/C=C/c2n[nH]c3ccccc23)c1NC(=O)c1cccn1C` [Compound 109, (E)-N-{2-[2-(1H-indazol-3-yl)vinyl]-6-methoxyphenyl}-1-methyl-1H-pyrrole-2-carboxamide]: the inhibition at 10 µM in experiment [1] (10 μmol/L) was 117%; in experiment [2], 123%; in experiment [3], 114%; in experiment [4] (10 μmol/L) it was 116%; in experiment [5] it was 103%.
`Cc1ccsc1C(=O)Nc1cc(C(=O)N2CCOCC2)ccc1/C=C/c1n[nH]c2ccccc12.Cl` [Compound 115, (E)-N-{2-[2-(1H-indazol-3-yl)vinyl]-5-(morpholin-4-ylcarbonyl)phenyl}-3-methylthiophene-2-carboxamide hydrochloride]: the “cytostatic rate (%) KMS-11 (10 μmol/L)” value in experiment [1] (10 μmol/L) worked out at 115.5%. For the same compound, in experiment [2], the “cytostatic rate (%) Colo205 (10 μmol/L)” value was 121.6%. Further, the “cytostatic rate (%) AsPC-1 (10 μmol/L)” value in experiment [3] is given as 108.7%. Also, the “cytostatic rate (%) H929 (10 μmol/L)” value in experiment [4] (10 μmol/L) came to 120.0%. The “inhibitory activity (%) at 10 μmol/L” value in experiment [5] came to 100.1%.
Turning to `Nc1cccc2c1C(=O)N(c1cc3c(cc1/C=C/c1n[nH]c4ccccc14)OCO3)C2=O` [Compound 152, (E)-4-amino-2-{6-[2-(1H-indazol-3-yl)vinyl]benzo[1,3]dioxol-5-yl}isoindole-1,3-dione], the inhibition at 10 µM in experiment [1] (10 μmol/L) is 116%; in experiment [2], 86.7%; in experiment [3], 72.1%; in experiment [4] (10 μmol/L), 122%; in experiment [5] (setting [6]) it was 99.5%.
For `Nc1ccc2c(c1)C(=O)N(c1cc3c(cc1/C=C/c1n[nH]c4ccccc14)OCO3)C2=O` [Compound 153, (E)-5-amino-2-{6-[2-(1H-indazol-3-yl)vinyl]benzo[1,3]dioxol-5-yl}isoindole-1,3-dione], in that order: 129%, 114%, 77%, 122% and 99.8%.
In the case of `Nc1cccc2c1C(=O)N(c1ccccc1/C=C/c1n[nH]c3ccccc13)C2=O` [Compound 194, (E)-4-amino-2-{2-[2-(1H-indazol-3-yl)vinyl]phenyl}isoindole-1,3-dione], the inhibition at 10 µM in experiment [1] (10 μmol/L) came out at 143%; in experiment [2], 97.9%; in experiment [3] it was 75.3%; in experiment [4] (10 μmol/L) it was 119%; in experiment [5] (setting [6]) it was 102%.
As to `CN(C(=O)c1ccc[nH]1)c1cc(C(=O)N2CCOCC2)ccc1/C=C/c1n[nH]c2ccccc12` [Compound 217, (E)-N-{2-[2-(1H-indazol-3-yl)vinyl]-5-(morpholin-4-ylcarbonyl)phenyl}-N-methylpyrrole-2-carboxamide hydrochloride], the inhibition at 1 µM in experiment [1] (1 μmol/L) worked out at 128%; in experiment [4] (1 μmol/L), 113%. The inhibition at 10 µM came to 122% in experiment [2], 91.9% in experiment [3] and 96.6% in experiment [5] (setting [6]).
For `Cc1ccsc1C(=O)Nc1cc(C(=O)N2CCN(S(C)(=O)=O)CC2)ccc1/C=C/c1n[nH]c2ccccc12` [Compound 222, (E)-N-{2-[2-(1H-indazol-3-yl)vinyl]-5-(4-methanesulfonylpiperazin-1-ylcarbonyl)phenyl}-3-methylthiophene-2-carboxamide hydrochloride], in that order: 108%, 118%, 123%, 114% and 98.7%.
For `Cc1ccsc1C(=O)Nc1cc(CN2CC[C@@H](N)C2)ccc1/C=C/c1n[nH]c2ccccc12` [Compound 233, (R)-(E)-N-{5-(3-aminopyrrolidin-1-ylmethyl)-2-[2-(1H-indazol-3-yl)vinyl]phenyl}-3-methylthiophene-2-carboxamide], the inhibition at 1 µM in experiment [1] (1 μmol/L) is 102%; in experiment [4] (1 μmol/L), 118%. The results for the inhibition at 10 µM in experiment [2], in experiment [3] and in experiment [5] (setting [6]) were 123%, 89.1% and 106%, respectively.
Regarding `Cc1ccsc1C(=O)Nc1cc(CN2CCN(CCO)CC2)ccc1/C=C/c1n[nH]c2ccccc12` [Compound 239, (E)-N-{5-[4-(2-hydroxyethyl)piperazin-1-ylmethyl]-2-[2-(1H-indazol-3-yl)vinyl]phenyl}-3-methylthiophene-2-carboxamide], the inhibition at 1 µM in experiment [1] (1 μmol/L) was determined as 152%; in experiment [4] (1 μmol/L) it was 115%. In addition, the inhibition at 10 µM in experiment [2] is 121%; in experiment [3], 102%; in experiment [5] (setting [6]), 101%.
For `COCCN(CCN(C)C)C(=O)c1ccc(/C=C/c2n[nH]c3ccccc23)c(NC(=O)c2sccc2C)c1` [Compound 241, (E)-N-{5-[N-(2-dimethylaminoethyl)-N-(2-methoxyethyl)carbamoyl]-2-[2-(1H-indazol-3-yl)vinyl]phenyl}-3-methylthiophene-2-carboxamide hydrochloride], in that order: 118%, 112%, 121%, 104% and 101%.
Consider `Cc1ccsc1C(=O)Nc1cc(CN2CCNCC2)ccc1/C=C/c1n[nH]c2ccccc12` [Compound 242], for which the “cytostatic rate (%) KMS-11 (1 μmol/L)” value in experiment [1] (1 μmol/L) is on record as 106.8%. For the same compound, in experiment [2], the “cytostatic rate (%) Colo205 (10 μmol/L)” value is recorded as 119.7%. Also, the “cytostatic rate (%) AsPC-1 (10 μmol/L)” value in experiment [3] was 87.1%. Moreover, in experiment [4] (1 μmol/L), the “cytostatic rate (%) H929 (1 μmol/L)” value came out at 111.1%. Moreover, the “inhibitory activity (%) at 10 μmol/L” value in experiment [5] (setting [6]) came out at 102.1%.
Turning to `Cc1ccsc1C(=O)Nc1cc(CNCCN2CCOCC2)ccc1/C=C/c1n[nH]c2ccccc12` [Compound 245, (E)-N-{2-[2-(1H-indazol-3-yl)vinyl]-5-[2-(morpholin-4-yl)ethylaminomethyl]phenyl}-3-methylthiophene-2-carboxamide], the values for the inhibition at 1 µM in experiment [1] (1 μmol/L) and in experiment [4] (1 μmol/L) were 118% and 126%, respectively. Also, the inhibition at 10 µM in experiment [2] worked out at 121%; in experiment [3], 102%; in experiment [5] (setting [6]), 99.9%.
For `Cc1ccsc1C(=O)Nc1cc(N2CCOCC2)ccc1/C=C/c1n[nH]c2ccccc12` [Compound 247, (E)-N-{2-[2-(1H-indazol-3-yl)vinyl]-5-morpholin-4-ylphenyl}-3-methylthiophene-2-carboxamide monohydrochloride], in that order: 133%, 127%, 123%, 117% and 102%.
